The values below come from paper PMC5620575 (Pharmaceutics, 2017).

A short description of series [1]: blood to plasma partition. It is filed as in vitro ADME. The following applies: heparinized whole blood, rabbit blood, 37 °C, n = 3. The method, then:
The spiked blood samples were kept at 37 °C in a shaking water bath for one hour, and plasma was then obtained by centrifugation at 37 °C. Aliquots of about 400 μL, of each plasma sample were kept frozen at −80 °C until analysis. The blood to plasma distribution ratio was determined from the ratio of the nominal total whole blood concentration and the measured plasma concentration for each compound.

Series [2] is described as follows: plasma protein binding (ultrafiltration). It is filed as in vitro ADME. The following applies: for fraction unbound at 1 h, 250 μg/L / fraction unbound at 1 h, 1000 μg/L / fraction unbound at 1 h: rabbit, plasma; for fraction unbound at 1 h, 250 μg/L / fraction unbound at 1 h, 1000 μg/L: n = 3, read-out: Plasma protein binding (% bound) (converted). The method, then: The remaining volume of the plasma samples obtained by centrifugation in the blood to plasma partition experiment, about 600 μL, was immediately placed in disposable ultrafiltration devices (Centrifree®, EMD Millipore Corp., Billerica, MA, USA), and centrifuged in a temperature controlled centrifuge at 37 °C. The ultrafiltrate collected in the ultrafiltration device cup was stored at −20 °C until analysis. The plasma protein binding for the three compounds in rabbit plasma was determined in triplicates at two different concentrations. The total (free + bound) plasma concentration is the concentration in the plasma samples obtained by centrifugation in the blood to plasma partition experiment, while the free (unbound) concentration is the concentration in the ultrafiltrate. The percentage bound was calculated from the free concentration and the corresponding total concentration according to Equation (1). (1) % Bound = Total concentration−Free concentration/Total concentration × 100

A short description of series [3]: tissue to plasma distribution. It is filed as in vivo. The following applies: New Zealand White, rabbit, 2 x 10 mg/kg IV, 2 h after second dose, n = 3. The method, then: Three groups of White New Zealand rabbits (n = 3, each) weighing 3.0–3.5 kg were used. Each group received 10 mg/kg of one compounds administered intravenously over a period of 3–5 min, followed one hour later by a second IV dose of 10 mg/kg. Two h later, the rabbits were euthanized with an IV dose of pentobarbital. Plasma and tissue samples, including kidney, liver, lungs, spleen, heart, muscles, and vetrus fluid were collected immediately, and stored at −80 °C until analysis.
Plasma ultra-filtrate samples were analyzed using the same procedures for the plasma. Tissue homogenates were prepared by adding 1 gm of the tissues samples to 4 g of phosphate buffer, pH 7.4 (1:4, w/w), then homogenization using Tissue-Tearor, Bio-Spec Products Inc. (Bartlesville, OK, USA). Aliquots of 200 μL of tissue homogenate samples were analyzed using the procedures for the plasma and the concentrations were determined using plasma calibrators as described and validated previously for Lzd and PH027 [18].
The tissue to plasma concentration ratios for the three compounds were calculated from the ratio of the tissue homogenate concentrations corrected for the dilution during the homoginization process and the plasma concentrations. Generally, the three compounds have very good distribution to all tissues. The tissue to plasma distribution ratios for the novel compounds were more than one in kidney, lung, liver, heart, muscles and spleen, and the ratios were more than those for Lzd in all investigated tissues. Table 3, summerizes the tissue to plasma distribution ratios for the three compounds in different tissues.

For series [4], the system named is Staphylococcus aureus and Enterococci spp. Also noted: method as in PMID 12467705, PMID 15911326, PMID 17140706, PMID 19376613, PMID 23811087. The conditions noted are these: clinical isolates; cited from earlier work.
The next series relates to Escherichia coli. Also noted: method as in PMID 12467705, PMID 15911326, PMID 17140706, PMID 19376613, PMID 23811087. The conditions noted are these: cited from earlier work.
A further series has as its system Streptococcus pneumoniae. On the set-up: method as in PMID 12467705, PMID 15911326, PMID 17140706, PMID 19376613, PMID 23811087. The conditions noted are these: cited from earlier work.
Another series has as its system Moraxella catarrhalis. On the set-up: method as in PMID 12467705, PMID 15911326, PMID 17140706, PMID 19376613, PMID 23811087. The conditions noted are these: cited from earlier work.
Another series has as its system S. aureus Giorgio. On the set-up: method as in ref unpublished data from Jin-Hwan Kwak at Handong Global University. The following applies: oral suspension 1 and 4 h after infection, survival recorded for 72 h; ref unpublished data from Jin-Hwan Kwak at Handong Global University; cited from earlier work.
On the set-up of series [5]: method as in unpublished data from our laboratory. The following applies: rabbit urine after IV administration; ref unpublished data from our laboratory; cited from earlier work.
The mark [6] stands for this setting: brain, read-out: Tissue to Plasma Concentration Ratio, Brain.
Where [7] appears, read: eye (vitreous fluid), read-out: Tissue to Plasma Concentration Ratio, Eye (vetrus fluid).
The mark [8] stands for this setting: heart, read-out: Tissue to Plasma Concentration Ratio, Heart.
[9] abbreviates: kidney, read-out: Tissue to Plasma Concentration Ratio, Kidney.
Where [10] appears, read: liver, read-out: Tissue to Plasma Concentration Ratio, Liver.
[11] abbreviates: lung, read-out: Tissue to Plasma Concentration Ratio, Lung.
Where [12] appears, read: muscle, read-out: Tissue to Plasma Concentration Ratio, Muscles.
[13] abbreviates: spleen, read-out: Tissue to Plasma Concentration Ratio, Spleen.

Converted amounts (≈) assume the structure as drawn. Like-named read-outs stand apart in the source and are kept apart here.

As for `O=C1O[C@@H](Cn2ccnn2)CN1c1ccc(N2CCOCC2)c(F)c1` [PH027], the blood plasma ratio at 1 h, 250 μg/L in series [1] is 0.96 ± 0.032. In addition, the blood plasma ratio at 1 h, 1000 μg/L in [1] is 1.01 ± 0.021. In addition, the fraction unbound at 1 h, 250 μg/L in series [2] was 0.613. In addition, the fraction unbound at 1 h, 1000 μg/L in [2] is 0.622. The compound also registered a fraction unbound at 1 h in series [2] (over both concentrations) of 0.62 to 0.63. Also, the Kp at 2 h in series [3] (setting [6]) is 0.223 ± 0.016; in series [3] (setting [7]), 0.989 ± 0.1; in [3] (setting [8]) it was 1.36 ± 0.087; in series [3] (setting [9]) it was 2.78 ± 0.089; in series [3] (setting [10]), 2.91 ± 0.168; in series [3] (setting [11]), 1.59 ± 0.041. The Kp at 2 h in series [3] (setting [12]) stood at 1.25 ± 0.059; in series [3] (setting [13]) it was 1.51 ± 0.026. In addition, the MIC is 0.5 to 1.0 µg/mL in [4], more than 64 µg/mL in the series on Escherichia coli, 0.5 µg/mL (≈ 1.44 µM) in the series with Streptococcus pneumoniae and more than 16.0 µg/mL with Moraxella catarrhalis. The “in vivo activity against systemic mice infection” value in the series with S. aureus Giorgio is “lower in vivo activity”. Also, in [5], the main metabolic route entry is given as “metabolized mainly through oxidation”.
With `O=C1O[C@@H](Cn2ccnn2)CN1c1ccc(N2CCN(C(=O)C(F)(F)F)CC2)c(F)c1` [PH051], in series [1], the blood plasma ratio at 1 h, 250 μg/L was 0.772 ± 0.022. Also, the blood plasma ratio at 1 h, 1000 μg/L in [1] came out at 0.833 ± 0.015. The plasma protein binding in series [2] (rabbit plasma, over both concentrations) is 91%. In addition, in series [2], the fraction unbound at 1 h, 250 μg/L is 0.089. Besides, the fraction unbound at 1 h, 1000 μg/L in series [2] is 0.091 ± 0.0019. In [2] (over both concentrations), this compound showed a fraction unbound at 1 h of 0.09 to 0.1. The Kp at 2 h in series [3] (setting [6]) came out at 0.179 ± 0.07; in series [3] (setting [7]), 0.81 ± 0.11; in series [3] (setting [8]), 1.56 ± 0.22; in series [3] (setting [9]), 2.22 ± 0.063; in series [3] (setting [10]), 1.7 ± 0.19; in series [3] (setting [11]), 1.5 ± 0.16. For the same compound, the results for the Kp at 2 h in series [3] (setting [12]) and in [3] (setting [13]) were 1.58 ± 0.21 and 1.41 ± 0.27, respectively. Moreover, the MIC in [4] was 0.25 to 0.5 µg/mL; in the series on Escherichia coli, more than 64 µg/mL; in the series with Streptococcus pneumoniae it was 1.0 µg/mL (≈ 2.26 µM); in the series on Moraxella catarrhalis, 8.0 µg/mL (≈ 18.1 µM). In addition, the “in vivo activity against systemic mice infection” value in the series with S. aureus Giorgio is recorded as “lower in vivo activity”. In addition, in series [5], the main metabolic route result is reported as “amide hydrolysis”.

Broadly, the MIC is the lowest concentration that inhibits growth of the organism.
